Holding throughout (assay type): cell-based
The target in experiment [1] is T1, human TLR2 (Homo sapiens, UniProt O60603).
T1 construct: expressed in transfected cells
Kind of experiment: TLR2 antagonism assay, HEK-TLR2-ELAM luciferase reporter cells stimulated with Pam3CSK4. The method, then: (§1) Either Pam3CSK4 and R-MALP-2 lipopeptides (EMC-Microcollections), or lipopolysaccharide (LPS, List Biologicals) are dissolved in water to a concentration of 1 mg/mL, sonicated 5 times for 30 seconds, and stored in aliquots at −20° C. Prior to addition to cells, an aliquot of the dissolved ligand is sonicated for 1 minute and then is diluted in medium to 2 ng/mL Pam3CSK4, 16 ng/mL R-MALP-2, or 100 ng/mL LPS. The final concentration in the assay is 0.2 ng/mL Pam3CSK4, 1.6 ng/mL R-MALP-2, or 10 ng/mL LPS.
(§2) The test compounds are stored as 30 mM stocks in […]. The final concentrations of the test compounds in the assay are 0.1, 0.3, 1, 3, 10, and 30 μM in 0.2% DMSO. 0.2% DMSO is used in the assay as a control.
HEK-TLR2-ELAM cells were generated by a two-step method. In step 1, Hek293 cells were transfected with pcDNA3.0 encoding human TLR2 followed by antibiotic selection with G418 in D-MEM supplemented with 10% fetal bovine serum (Gibco BRL) to generate Hek-TLR2 cells. In step 2, Hek-TLR2 cells were transfected with pELAM-luc/Zeo followed by antibiotic selection with Zeocin in D-MEM supplemented with 10% fetal bovine serum. Transfectants were screened for TLR2 responsiveness by measuring ligand-induced pELAM-luciferase reporter activity, and analyzed for TLR2 mRNA expression by RT-PCR.
Step 1. On day 1, HEK-TLR2-ELAM cells are plated at 2×10^5 cells/mL, 80 μL/well, in 96-well black plates. The cells are incubated at 37° C., 5% CO2, for 24 hours. The growth medium used is D-MEM, 10% fetal bovine serum, 2 mM L-glutamine, 10 μg/mL Ciprofloxacin, 300 μg/mL Geneticin (G418), and 150 μg/mL Zeocin.
Step 2. On day 2, 10 μL of each test compound is added to the wells, and 10 μL lipopeptide is added to all of the wells. The plates are then incubated at 37° C., 5% CO2, for 18 hours.
(§3) Step 3. On day 3, 25 μL of Steady-Glo reagent (Promega, Inc.) is added to each well. The plates are then shaken for 5 minutes, and the chemiluminescence of each well is read in a Wallac1450 MicroBetaTriLux counter. Dose-response curves were plotted in KaleidaGraph, version 3.5 Synergy Software, and IC50 values were calculated.
For orientation: Reporter assays use an easily measured gene product as a stand-in for the process of interest.

For experiment [2], the target named is T2, TLR4 (Homo sapiens, UniProt O00206).
T2 construct: expressed in transfected cells
T2 sequence (O00206 24-839): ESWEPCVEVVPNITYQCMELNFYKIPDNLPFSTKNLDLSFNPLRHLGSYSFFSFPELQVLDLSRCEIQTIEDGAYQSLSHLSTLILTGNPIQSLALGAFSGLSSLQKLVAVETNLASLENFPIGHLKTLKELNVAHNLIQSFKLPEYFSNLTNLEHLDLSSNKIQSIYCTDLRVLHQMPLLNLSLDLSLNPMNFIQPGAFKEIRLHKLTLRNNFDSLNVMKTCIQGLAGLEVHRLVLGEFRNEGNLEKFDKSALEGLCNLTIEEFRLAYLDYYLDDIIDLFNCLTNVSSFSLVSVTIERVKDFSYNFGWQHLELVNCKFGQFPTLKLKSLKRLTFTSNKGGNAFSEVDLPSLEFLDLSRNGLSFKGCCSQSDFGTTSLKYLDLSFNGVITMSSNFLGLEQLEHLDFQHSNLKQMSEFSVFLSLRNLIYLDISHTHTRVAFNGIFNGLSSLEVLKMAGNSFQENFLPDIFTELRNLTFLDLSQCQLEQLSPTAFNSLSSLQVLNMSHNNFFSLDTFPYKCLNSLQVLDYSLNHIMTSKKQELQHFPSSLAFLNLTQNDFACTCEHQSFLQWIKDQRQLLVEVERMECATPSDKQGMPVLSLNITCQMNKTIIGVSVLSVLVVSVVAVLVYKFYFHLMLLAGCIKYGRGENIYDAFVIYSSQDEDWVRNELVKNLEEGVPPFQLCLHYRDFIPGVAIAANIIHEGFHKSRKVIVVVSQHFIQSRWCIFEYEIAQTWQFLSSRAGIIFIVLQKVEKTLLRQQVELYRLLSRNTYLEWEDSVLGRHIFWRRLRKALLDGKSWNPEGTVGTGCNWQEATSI
T2 sequence (Q9Y6Y9 17-160 partner limits assumed): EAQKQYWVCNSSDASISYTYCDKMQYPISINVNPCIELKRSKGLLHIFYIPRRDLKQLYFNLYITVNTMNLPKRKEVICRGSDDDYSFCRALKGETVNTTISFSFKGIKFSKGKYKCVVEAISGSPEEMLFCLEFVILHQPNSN
Put plainly: TLR4 antagonism assay, HEK-TLR4-MD2-ELAM luciferase reporter cells stimulated with LPS plus soluble CD14. To be noted: Table 6, 10 ng/mL LPS plus 10 nM soluble CD14, 18 hours. As to the method:
as §1, §2
HEK293 cells stably carrying plasmids for TLR4, MD2, and the NF-κB reporter gene ELAM-1-luciferase (HEK-TLR4-MD2-ELAM) were generated as described by Yang et al., J. Biol. Chem. 275:20861-20866, 2000.
Step 1. On day 1, HEK-TLR4-MD2-ELAM cells were plated at 4×10^5 cells/mL, 80 μL/well, in 96-well black plates. The growth medium used is D-MEM, 10% fetal bovine serum, 2 mM L-glutamine, 10 μg/mL Ciprofloxacin, 300 μg/mL Geneticin (G418), 150 μg/mL Zeocin, and 50 μg/mL Hygromycin.
Step 2. On day 2, 10 μL of each test compound is added to the wells, and 10 μL of LPS plus 10 nM soluble CD14 (Biometec) is added to all of the wells. The plates are then incubated at 37° C., 5% CO2, for 18 hours.
as §3

Experiment [3] has as its target T1, human TLR2. Put plainly: TLR2 antagonism assay, HEK-TLR2-ELAM luciferase reporter cells stimulated with R-MALP-2. The settings on record: Table 7, diacylated lipopeptide R-MALP-2 (TLR2 interacts with TLR6), 1.6 ng/mL. As to the method:
as §1, §2
HEK-TLR2-ELAM cells were generated by a two-step method. In step 1, Hek293 cells were transfected with pcDNA3.0 encoding human TLR2 followed by antibiotic selection with G418 in D-MEM supplemented with 10% fetal bovine serum (Gibco BRL) to generate Hek-TLR2 cells. […] Transfectants were screened for TLR2 responsiveness by measuring ligand-induced pELAM-luciferase reporter activity, and analyzed for TLR2 mRNA expression by RT-PCR. […]
Step 3. […] The plates are then shaken for 5 minutes, and the chemiluminescence of each well is read in a Wallac1450 MicroBetaTriLux counter. Dose-response curves were plotted in KaleidaGraph, version 3.5 Synergy Software, and IC50 values were calculated. […]

[4] abbreviates: Table 6, 0.2 ng/mL Pam3CSK4, 18 hours, ELAM-luciferase reporter.
Where [5] appears, read: Table 7, triacylated lipopeptide Pam3CSK4 (TLR2 associates with TLR1), 0.2 ng/mL.

For eleven compounds, IC50 results are on record in patent US7838548B2, “Compounds and methods for treating toll-like receptor 2-related diseases and conditions” (Eisai R&D Management Co., Ltd., priority 2003, dated 2010).

Each structure is given as a SMILES string.

T1 sequence (O60603 21-784): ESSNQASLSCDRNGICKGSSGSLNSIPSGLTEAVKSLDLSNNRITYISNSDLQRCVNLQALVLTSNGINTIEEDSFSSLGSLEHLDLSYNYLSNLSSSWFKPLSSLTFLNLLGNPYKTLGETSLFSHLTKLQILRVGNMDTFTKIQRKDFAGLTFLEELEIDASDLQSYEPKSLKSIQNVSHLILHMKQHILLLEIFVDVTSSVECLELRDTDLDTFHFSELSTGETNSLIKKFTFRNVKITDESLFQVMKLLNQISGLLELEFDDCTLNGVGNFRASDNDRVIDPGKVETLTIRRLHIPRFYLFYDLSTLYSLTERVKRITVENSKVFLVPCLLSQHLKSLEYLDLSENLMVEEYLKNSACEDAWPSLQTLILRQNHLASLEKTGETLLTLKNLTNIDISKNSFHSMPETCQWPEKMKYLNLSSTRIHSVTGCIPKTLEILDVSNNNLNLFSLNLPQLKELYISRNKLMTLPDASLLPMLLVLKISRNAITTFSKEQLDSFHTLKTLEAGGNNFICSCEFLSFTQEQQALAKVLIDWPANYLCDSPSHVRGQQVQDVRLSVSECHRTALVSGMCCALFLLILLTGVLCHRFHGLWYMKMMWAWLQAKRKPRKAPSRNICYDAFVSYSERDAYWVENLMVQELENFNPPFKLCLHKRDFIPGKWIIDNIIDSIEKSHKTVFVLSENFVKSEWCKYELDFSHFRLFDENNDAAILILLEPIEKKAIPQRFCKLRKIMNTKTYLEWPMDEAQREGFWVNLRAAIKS

For orientation: IC50 means the midpoint of a concentration-inhibition curve. For `CCCCCCCCCCCCCCCCCCCC(=O)N[C@@H](COP(=O)(O)OCCNC(=O)[C@@H](NC(=O)Cc1c[nH]c2ccc(OCc3ccccc3)cc12)C(C)C)C(=O)NCCC(O)CCCCCCCCCCCCC` (mixture of isomers) [ER811254], the results for the IC50 in experiment [1] (setting [4]) and in experiment [2] were 770 nM and 3600 nM, respectively.

As to `CCCCCCCCCCCCCCCCCCCC(=O)N[C@@H](COP(=O)(O)OCCNC(=O)[C@@H](NC(=O)Cc1c[nH]c2ccccc12)[C@@H](C)CC)C(=O)NCCC(O)CCCCCCCCCCCCC` (mixture of isomers) [ER811393], the IC50 in experiment [2] stood at 12300 nM.

Regarding `CCCCCCCCCCCCCCCCCCCC(=O)N[C@@H](COP(=O)(O)OCCNC(=O)[C@@H](NC(=O)Cc1c[nH]c2ccccc12)[C@@H](C)CC)C(=O)NCCC(O)CCCCCCCCCC` (mixture of isomers) [ER811395], the results for the concentration for half-maximal inhibition (IC50) in experiment [1] (setting [4]) and in experiment [2] were 650 nM and 1800 nM, respectively.

With `CCCCCCCCCCCCCCCCCCCC(=O)N[C@@H](COP(=O)(O)OCCNC(=O)[C@@H](NC(=O)Cc1c[nH]c2ccc(OCc3ccccc3)cc12)[C@@H](C)CC)C(=O)NCCC(O)CCCCCCCCCCCCC` (mixture of isomers) [ER812011], the half-inhibitory concentration (IC50) in experiment [2] amounted to 6600 nM.

In the case of `CCCCCCCCCCCCCC(=O)N[C@H](COCC[C@@H](CCCCCCC)OC(=O)CCCCCCCCCCC)COP(=O)(O)OCCNC(=O)[C@@H](NC(=O)Cc1c[nH]c2ccccc12)[C@@H](C)CC` [ER808977], the IC50 was 240 nM in experiment [1] (setting [5]) and 20000 nM in experiment [3].

As for `CCCCCCCCCCCCCCCC(=O)N[C@@H](COP(=O)(O)OCCNC(=O)[C@@H](NC(=O)Cc1c[nH]c2ccccc12)[C@@H](C)CC)C(=O)NCCCOC(=O)CCCCCCCCCCC` [ER811211], the IC50 in experiment [1] (setting [4]) worked out at 440 nM; in experiment [2] it was 700 nM.

In the case of `CCCCCCCCCCCCCCCC(=O)OCCCNC(=O)C(COP(=O)(O)OCCNC(=O)[C@@H](NC(=O)Cc1c[nH]c2ccccc12)[C@@H](C)CC)NC(=O)CCCCCCCCCCC` (stereo partly drawn) [ER811212], the figures for the IC50 in experiment [1] (setting [4]) and in experiment [2] were 390 nM and 1000 nM, respectively.

`CCCCCCCCCCCCCCCC(=O)N[C@@H](COP(=O)(O)OCCNC(=O)[C@@H](NC(=O)Cc1c[nH]c2ccc(Br)cc12)[C@@H](C)CC)C(=O)NCCCOC(=O)CCCCCCCCCCC` [ER811232]: the IC50 in experiment [1] (setting [4]) turned out to be 750 nM; in experiment [2], 400 nM.

Regarding `CCCCCCCCCCCCCCCC(=O)N[C@@H](COP(=O)(O)OCCNC(=O)[C@@H](NC(=O)Cc1c[nH]c2ccc(-c3ccccc3)cc12)[C@@H](C)CC)C(=O)NCCCOC(=O)CCCCCCCCCCC` [ER811243], in experiment [2], the IC50 was determined as 200 nM.

Consider `CCCCCCCCCCCCCCCC(=O)OC[C@H](CNC(=O)[C@H](COP(=O)(O)OCCNC(=O)[C@@H](NC(=O)Cc1c[nH]c2ccc(OCc3ccccc3)cc12)[C@@H](C)CC)NC(C)=O)OC(=O)CCCCCCCCCCCCCCC` [ER811245], for which the concentration for half-maximal inhibition (IC50) in experiment [1] (setting [4]) amounted to 430 nM; in experiment [1] (setting [5]), 440 nM; in experiment [3], 30000 nM; in experiment [2], 3400 nM.

As for `CCCCCCCCCCCCCCCC(=O)OC[C@H](CNC(=O)[C@@H](COP(=O)(O)OCCNC(=O)[C@@H](NC(=O)Cc1c[nH]c2ccc(OCc3ccccc3)cc12)[C@@H](C)CC)NC(C)=O)OC(=O)CCCCCCCCCCCCCCC` [ER811261], the IC50 in experiment [1] (setting [4]) turned out to be 500 nM; in experiment [2], 1800 nM.
